Source: ChEMBL document CHEMBL5537116, “Synthesis and structure-activity optimization of hydroxypyridinones against rhabdomyolysis-induced acute kidney injury” (Eur J Med Chem, 2024)
The source made the active and inactive calls. The rule behind the calls is not given here.

Tests used:
[1] = Competitive binding affinity to Fe3+ ion assessed as metal chelating activity by measuring binding constant by calcein probe based fluorescence displacement assay
[2] = Cytotoxicity against human HK-2 cells assessed as cell growth inhibition incubated for 48 hrs by SRB assay; format: toxicity, cell-based
HK-2 [3] = test: Inhibition of RSL-3 induced ferroptosis in human HK-2 cells incubated for 48 hrs in presence of FAC; format: functional, cell-based; settings: HK-2, 48 h
[4] = Antioxidant activity assessed as ABTS radical scavenging activity incubated for 6 mins by absorbance based microplate reader analysis; format: functional
HK-2 [5] = test: Upregulation in intracellular HIF-1alpha level in human HK-2 cells at 50 uM under normoxia condition incubated for 12 hrs by Western blot analysis; format: functional, cell-based
[6] = Potency index, ratio of trolox IC50 to test compound IC50 for antioxidant activity assessed as ABTS radical scavenging activity incubated for 6 mins by absorbance based microplate reader analysis; format: functional
HK-2 [7] = test: Anti-ferroptotic activity against RSL3-induced ferroptosis in human HK-2 cells assessed as decrease in lipid peroxidation by measuring fluorescent intensity preincubated with FAC for 2 hrs followed by compound addition and measured after 12 hrs by flow cytometry analysis; format: functional, cell-based
Mus musculus [8] = test: (§1) Reno-protective activity against glycerol-induced rhabdomyolysis acute kidney injury C57BL/6 mouse model assessed as decrease in serum creatinine level at 50 mg/kg, ip preadministered with every 12 hrs of compound for 5 times in first three days with subsequent 1 hrs compound treatment after 16 hrs of water deprivation followed by glycerol administration and measured on day 5; format: functional; design: scale not given: the % may be the effect or the level left; settings: time 5 day
Mus musculus [9] = test: as §1, with “BUN” for “serum creatinine”; format: functional; design: scale not given: the % may be the effect or the level left; settings: time 5 day
[10] = Sub-acute in C57BL/6 mouse assessed as animal death at 1 mg/kg, ip measured on day 2; format: toxicity, organism-based; settings: in vivo, 48 h, time 2 day
[11] = Sub-acute in C57BL/6 mouse assessed as poisoning symptoms at 1 mg/kg, ip measured for 7 days; format: toxicity, organism-based; settings: in vivo, 168 h, time 7 day
Mus musculus [12] = test: as §1, with “BUN” for “serum creatinine”, “4 to 10” for “50”; format: functional, organism-based; settings: dose 4-10 mg/kg, time 5.0 day
[13] = target: Hypoxia-inducible factor 1-alpha (Homo sapiens) (UniProt Q16665); test: Induction of HIF-1alpha stabilization in human HK-2 cells by Western blotting analysis; format: cell-based; settings: dose 5-20 µM
Hypoxia-inducible factor 1-alpha (Homo sapiens), sequence (Q16665 whole entry, looked up): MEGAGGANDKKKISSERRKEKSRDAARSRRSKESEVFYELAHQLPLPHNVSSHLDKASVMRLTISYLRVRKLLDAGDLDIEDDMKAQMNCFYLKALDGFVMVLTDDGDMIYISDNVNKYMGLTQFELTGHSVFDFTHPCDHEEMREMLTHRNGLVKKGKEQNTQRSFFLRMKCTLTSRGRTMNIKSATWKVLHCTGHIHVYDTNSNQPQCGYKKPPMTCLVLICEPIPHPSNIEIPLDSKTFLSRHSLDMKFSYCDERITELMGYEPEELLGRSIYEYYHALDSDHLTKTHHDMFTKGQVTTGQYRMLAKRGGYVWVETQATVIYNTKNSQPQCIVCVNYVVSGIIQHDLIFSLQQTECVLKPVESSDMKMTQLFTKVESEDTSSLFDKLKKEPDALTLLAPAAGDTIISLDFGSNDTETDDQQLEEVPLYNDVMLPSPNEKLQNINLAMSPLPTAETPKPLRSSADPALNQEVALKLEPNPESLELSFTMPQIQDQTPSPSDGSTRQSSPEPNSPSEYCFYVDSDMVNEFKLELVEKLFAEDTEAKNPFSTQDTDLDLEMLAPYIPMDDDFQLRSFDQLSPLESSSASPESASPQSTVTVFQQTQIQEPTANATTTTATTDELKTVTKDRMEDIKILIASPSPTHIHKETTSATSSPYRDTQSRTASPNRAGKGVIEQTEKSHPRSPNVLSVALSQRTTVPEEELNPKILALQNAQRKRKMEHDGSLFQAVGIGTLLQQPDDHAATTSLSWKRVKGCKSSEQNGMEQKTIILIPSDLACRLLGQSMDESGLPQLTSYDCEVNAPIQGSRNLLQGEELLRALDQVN

Mus musculus [14] = test: (§2) Reno-protective activity against glycerol-induced rhabdomyolysis acute kidney injury C57BL/6 mouse model assessed as downregulation of Ptgs2 mRNA expression at 4 to 10 mg/kg, ip preadministered with every 12 hrs of compound for 5 times in first three days with subsequent 1 hrs compound treatment after 16 hrs of water deprivation followed by glycerol administration and measured on day 5 by qRT-PCR analysis; format: functional, organism-based; settings: dose 4-10 mg/kg, time 5.0 day
[15] = Sub-acute in C57BL/6 mouse assessed as animal death at 1 mg/kg, ip measured for 7 days; format: toxicity, organism-based; settings: in vivo, 168 h, time 7 day
Mus musculus [16] = test: as §1, with “BUN” for “serum creatinine”, “4” for “50”; format: functional; design: scale not given: the % may be the effect or the level left; settings: time 5 day
Mus musculus [17] = test: as §1, with “BUN” for “serum creatinine”, “10” for “50”; format: functional; design: scale not given: the % may be the effect or the level left; settings: time 5 day
Mus musculus [18] = test: as §1, with “4” for “50”; format: functional; design: scale not given: the % may be the effect or the level left; settings: time 5 day
[19] = Toxicity in C57BL/6 mouse assessed as kidney damage at 10 mg/kg, ip measured for 3 days by H and E staining based analysis; format: organism-based; settings: in vivo, 72 h, time 3 day
Mus musculus [20] = test: as §1, with “10” for “50”; format: functional; design: scale not given: the % may be the effect or the level left; settings: time 5 day
[21] = Sub-acute in C57BL/6 mouse assessed as change in body weight at 200 mg/kg, ip measured for 7 days; format: toxicity, organism-based; settings: in vivo, 168 h, time 7 day
HK-2 [22] = test: Upregulation in intracellular HIF-1alpha level in human HK-2 cells at 20 uM under normoxia condition incubated for 12 hrs by Western blot analysis; format: functional, cell-based
Mus musculus [23] = test: as §2, with “decrease in iron accumulation in kidney” for “downregulation of Ptgs2 mRNA expression”, “5” for “5 by qRT-PCR analysis”; format: functional, organism-based; settings: dose 4-10 mg/kg, time 5.0 day
Mus musculus [24] = test: Upregulation of HIF-1alpha expression in C57BL/6 mouse kidney at 50 mg/kg, ip administered for every 12 hrs for 3 days and measured after 5 days; format: functional, organism-based
Mus musculus [25] = test: as §1, with “4 to 10” for “50”; format: functional, organism-based; settings: dose 4-10 mg/kg, time 5.0 day
Mus musculus [26] = test: as §2, with “[…]” for “Ptgs2”; format: functional, organism-based; settings: dose 4-10 mg/kg, time 5.0 day

Row | Structure (SMILES) | Kb [1] | CC50 at 48 h [2] | EC50 (HK-2 [3]) | also measured
1 | CCc1c(O)c(=O)ccn1CCc1ccccc1 | 1.69 10^22/M | > 100 µM | > 100 µM | 
2 | Cc1c(O)c(=O)ccn1-c1ccc(N(C)C)cc1 | 0.98 10^22/M | > 100 µM | 45 µM | 
3 | Cc1c(C)c2c(c(C)c1O)CCC(C)(C(=O)O)O2 (centres undefined) [TROLOX] |  |  |  | IC50 [4]: 33.7 µM
4 | Cc1c(O)c(=O)ccn1-c1ccc(N2CCN(C)CC2)cc1 | 1.3 10^22/M | 81 µM | 60 µM | Activity (HK-2 [5]): Active
5 | Cc1c(O)c(=O)ccn1CCN(C)C | 1.21 10^22/M | > 100 µM | > 100 µM | 
6 | Cc1c(O)c(=O)ccn1-c1ccc(OCCN(C)C)cc1 | 1.37 10^22/M | > 100 µM | 18 µM | Ratio IC50 [6]: 1.5; IC50 [4]: 22.9 µM; Activity (HK-2 [7]): Active
7 | Cc1c(O)c(=O)ccn1-c1ccc(OCCOCCN(C)C)cc1 | 1.79 10^22/M | 68 µM | 28 µM | Ratio IC50 [6]: 1.5; IC50 [4]: 22.2 µM; Activity (HK-2 [7]): Active
8 | Cc1c(O)c(=O)ccn1-c1ccc(NCCN(C)C)cc1 | 1.4 10^22/M | > 100 µM | 35 µM | 
9 | Cc1c(O)c(=O)ccn1-c1ccc(N(C)CCO)cc1 | 1.15 10^22/M | > 100 µM | 46 µM | 
10 | Cc1c(O)c(=O)ccn1C [DEFERIPRONE] | 1.52 10^22/M | > 100 µM | > 100 µM | Activity (Mus musculus [8]): 19%; Activity (Mus musculus [9]): 18%; IC50 [4]: 16 µM; Activity [10]: Toxic
11 | Cc1c(O)c(=O)ccn1-c1ccc(OC2CCN(C)C2)cc1 (centres undefined) | 1.35 10^22/M | > 100 µM | > 100 µM | 
12 | Cc1c(O)c(=O)ccn1-c1ccc(N(C)CCN(C)C)cc1.Cl | 1.16 10^22/M | > 100 µM | 20 µM | Activity [11]: Non-Toxic; Activity (Mus musculus [12]): Active; Activity [13]: Dose-Dependent Effect; Activity (Mus musculus [14]): Active; Activity [15]: Non-Toxic; Activity (Mus musculus [16]): 19%; Activity (Mus musculus [17]): 44%; Ratio IC50 [6]: 1.5; IC50 [4]: 12.3 µM; Activity (Mus musculus [18]): 14%; Activity [19]: Non-Toxic; Activity (Mus musculus [20]): 68%; Activity [21]: Non-Toxic; Activity (HK-2 [22]): Active; Activity (Mus musculus [23]): Active; Activity (Mus musculus [24]): Active; Activity (HK-2 [7]): Active; Activity (Mus musculus [25]): Active; Activity (Mus musculus [26]): Active
13 | Cc1c(O)c(=O)ccn1-c1ccc(N2CCOCC2)cc1 | 1.33 10^22/M | > 100 µM | 58 µM | 
14 | Cc1c(O)c(=O)ccn1-c1ccc(NCCN2CCN(C)CC2)cc1 | 1.22 10^22/M | > 100 µM | 44 µM | 
15 | Cc1c(O)c(=O)ccn1CC1CCCCC1 | 1.32 10^22/M | > 100 µM | > 100 µM | 
16 | COc1cc(N2CCN(C)CC2)ccc1-n1ccc(=O)c(O)c1C | 1.88 10^22/M | > 100 µM | > 100 µM | 
17 | Cc1c(O)c(=O)ccn1CCc1ccccc1 | 1 10^22/M | > 100 µM | > 100 µM | 
18 | Cc1c(O)c(=O)ccn1-c1ccc(OCC2CCN(C)CC2)cc1 | 1.12 10^22/M | > 100 µM | 43 µM | 
19 | Cc1c(O)c(=O)ccn1-c1ccc(OCCCN2CCOCC2)cc1 | 1.23 10^22/M | 78 µM | 20 µM | Ratio IC50 [6]: 1.5; IC50 [4]: 17.2 µM; Activity (HK-2 [7]): Active
20 | Cc1c(O)c(=O)ccn1-c1ccc(N2CCN(C)CC2)c(F)c1 | 1.17 10^22/M | > 100 µM | 93 µM | 
21 | Cc1c(O)c(=O)ccn1-c1ccc(OCCN2CCCCC2)cc1 | 2.23 10^22/M | > 100 µM | 86 µM | 
